Assay results reported in US10123985B2, “Therapeutic strategies for treating mitochondrial disorders” (Whitehead Institute for Biomedical Research, priority 2015, dated 2018).
“Also recorded” adds a separate entry of the source.

Key:
Type in all cases: cell-based
[1] = test system: 143B CytB cells; experiment: Amino acid and TCA cycle metabolite GC-MS analysis, 143B CytB cells; details: AKB withdrawal
Protocol: 143B and 143B CytB cells were seeded at 400,000 cells/well in 6 well dishes overnight. The following day, cells were washed 2 times in PBS and media was changed to proliferation assay media with or without the indicated treatments. After 8 hours, polar metabolites were extracted using 80% methanol in water with 1 μg norvaline per sample. Soluble content was then dried under nitrogen gas. Polar samples were derivatized and measured as detailed in (Lewis). Relative metabolite abundances were determined by integrating ion peak area (Metran) and normalized to norvaline internal extraction standard.

[2] = test system: 143B CytB cells; experiment: Cell cycle distribution by propidium iodide flow cytometry; details: 143B CytB cells without AKB compared with AKB, 78 hours
Protocol: 143B CytB cells were incubated in untreated media or media containing AKB or 100 μM adenine for 78 hours before being washed with PBS, trypsinized, pelleted, and resuspended in 500 μL PBS. Cells were fixed by adding 4.5 mL 70% ethanol and incubated at 4° C. overnight. The following day cells were pelleted and resuspended in 1 mL PBS+0.1% (v/v) Triton X-100. RNase A and then propidium iodide (PI) were added to 0.2 mg/mL and 20 μg/mL, respectively. Samples were incubated at 37° C. for 15 minutes and filtered into a flow cytometry tube. DNA content was measured by flow cytometry (BD FACS Canto II) and analyzed (FACS Diva Software).

[3] = test system: ETC-defective cybrid cells; experiment: [U-13C]-L-glutamine isotope tracing of aspartate in cybrid cells; details: [U-13C]-L-glutamine 7 hours, pyruvate (1 mM)
Protocol: FIG. 19. […] Cell line models of ETC dysfunction were cultured in RPMI (supplemented with uridine) with pyruvate (1 mM) or aspartate (10 mM) for 6 days. Relative cell number was determined by normalizing to the pyruvate-supplemented condition. Representative bright-field micrographs of MERRF, CYTB, and 143B ρ0 cells after 6 days in indicated conditions (right) (mean±SD, n=3, **p<0.05). […] Mass isotopomer analysis of aspartate in wild type, phenformin-treated wild type, and ETC-defective cybrid cells cultured for 7 hours with [U-^13C]-L-glutamine (middle) in the presence or absence of pyruvate (1 mM). The fraction of labeled aspartate from [U-^13C]-L-glutamine is indicated (mean±SD, for n=3, **p<0.05) (bottom). OAA, oxaloacetate. […] Immunoblot analysis of wild type, MERRF, and CYTB cybrid cells expressing sgControl and sgGOT1 (top). Raptor was used as a loading control. […] Relative cell number was determined by normalizing to sgControl expressing cell line (mean±SD, for n=3, **p<0.05). […]
Polar metabolites were extracted using 1 ml of ice-cold 80% methanol with 10 ng/ml valine-d8 as an internal standard. […] Relative quantitation of polar metabolites was performed with XCalibur QuanBrowser 2.2 (Thermo Fisher Scientific) using a 5 ppm mass tolerance and referencing an in-house library of chemical standards.

Row | SMILES | Aspartate intracellular pool size [1] | Glutamate intracellular pool size [1] | TCA cycle metabolite pool sizes [1] | Cell cycle distribution (DNA content) [2] | Aspartate synthesis in ETC-defective cybrid cells [3]
1 | CCC(=O)C(=O)O [AKB, α-ketobutyrate] | also decreased | only modestly decreased | drastically lowered | do not obviously arrest at a specific stage of the cell cycle | 
2 | CC(=O)C(=O)O [pyruvate] |  |  |  |  | stimulated aspartate synthesis in the ETC-defective cells; also recorded: stimulates aspartate biosynthesis in cybrid cells with ETC dysfunction
